Series [1] concerns Vascular smooth muscle cells. Nature of the series: Growth inhibition against smooth muscle cells (PDGF-BB stimulated, XTT method). The series is classed as cell-based. The conditions noted are these: Sus scrofa, 72 h, pig aorta cells, PDGF-BB 20 ng/ml, 3 days, read-out: Growth Inhibitory effect against smooth muscle cells IC50. An excerpt:
Test Example 2 Growth Inhibition Against Smooth Muscle Cells
Vascular smooth muscle cells were isolated from a pig aorta by explantation and used for the test. The cells were put into wells of a 96-well plate (8000 cells/well) and cultured in Dulbecco's modified Eagle's medium (DMEM; Nissui Pharmaceutical Co., Ltd.) containing 10% fetal bovine serum (FBS; Hyclone) for 4 days. Then, the cells were further cultured in DMEM containing 0.1% FBS for 3 days, and were synchronized at the cell growth stationary phase.
To each well was added DMEM containing 0.1% FBS and a test sample at a varied concentration, and the cell growth was brought about by PDGF-BB (SIGMA, final concentration: 20 ng/ml). After culturing for 3 days, the cell growth was measured using the cell growth assay kit (Boehringer Mannheim) according to the XTT method [J. Immunol. Methods, 142, 257-265 (1991)], and the cell growth score was calculated by the following equation.
P100: Absorbance by XTT reagent when stimulated by PDGF-BB
P0: Absorbance by XTT reagent when not stimulated by PDGF-BB
M: Absorbance by XTT reagent after addition of a sample when stimulated by PDGF-BB
(In general: Tetrazolium dyes change colour on reduction, which living cells bring about.)

Series [2] has as its target T1, human β-PDGF receptor (Homo sapiens, UniProt P09619).
T1 construct: expressed in transfected cells; host or cells: Chinese hamster ovary cells (CHO)
Put plainly: Inhibitory effect on phosphorylation of PDGF receptor. It is filed as cell-based. As to conditions: CHO cells expressing human β-PDGF receptor. The protocol:
Test Example 1 Inhibitory Effect on Phosphorylation of PDGF Receptor
The test was carried out according to the method described in the literature [Dah-Shuhn et al., J. Biol. Chem., 266, 413-418 (1991)], using Chinese hamster ovary cells (CHO) wherein human β-PDGF receptor cDNA was introduced and expressed.

The test system of series [3] is Lewis rats. Put plainly: Rat adjuvant arthritis model. The series is classed as in vivo. As to conditions: 3 mg/ml suspension, 1 ml/100 g orally once a day; for inhibition at 3000 µg/mL (stock): Rattus norvegicus, po, 120 h. As for the experimental part: Test Example 4 Evaluation by the use of a Rat Adjuvant Arthritis Model
Killed cells of Mycobacterium butyricum (Difco Laboratories Inc.) were disrupted in agate mortar and suspended in liquid paraffin to the final concentration of 6.6 mg/ml, followed by sterilization with high pressure steam. Then, 100 μl of the suspension was intradermaly injected into the right hind foot pad of each animal of groups of female 8-weeks-old Lewis rats (Charles River Japan) (6 animals/group) to induce adjuvant arthritis. A test compound was suspended in a 0.5% solution of methylcellulose to the final concentration of 3 mg/ml, and from just before the induction of arthritis, the suspension was orally administered in an amount of 1 ml/100 g of the body weight once a day, 5 days a week. To a control group was administered a 0.5% solution of methylcellulose. A normal group was given no adjuvant treatment or test compound administration. The administration of the test compound was continued till the 18th day after the adjuvant treatment. On the 17th day, the number of leukocytes in peripheral blood was counted, and on the 18th day, all the blood was collected, followed by dissection. The change in body weight with the passage of time, the change of edema in hind paw with the passage of time, the weight of spleen and thymus, the number of leukocytes in peripheral blood, the hydroxyproline content of urine, the glucosaminoglycan content of urine, the SH concentration in serum, the concentration of nitrogen monoxide in serum and the concentration of mucoprotein in serum were measured and evaluated. The volume of both hind paws was measured using a rat's hind foot edema measurement device (TK-101, Unicom). The number of leukocytes in peripheral blood was counted using an automatic multichannel blood cell counter (Sysmex K-2000, Toa Iyo Denshi Co., Ltd.). The hydroxyproline content of urine was measured according to the method described in Ikeda, et al., Annual Report of Tokyo Metropolitan Research Laboratories P. H., 36, 277 (1985), and the glucosaminoglycan content was measured according to the method described in Moriyama, et al., Hinyo Kiyo, 40, 565 (1994) and Klompmakers, et al., Analytical Biochemistry, 153, 80 (1986). […] The concentration of mucoprotein was measured using Aspro GP Kit (Otsuka Pharmaceutical Co., Ltd.). The percentage of inhibition for each indication was calculated according to the following equation.
% Inhibition={(Control group−Compound-administered group)/(Control group−Normal group)}×100

The subject of series [4] is Wistar-Kyoto rats. Put plainly: Mesangial proliferative glomerulonephritis model (anti-Thy-1.1 antibody OX-7). The conditions noted are these: per glomerulus, 7th day after OX-7; twice a day for 7 days; normal 1.8 +/− 0.3, solvent-administered 8.7 +/− 0.4. The series is classed as in vivo, rat. The protocol:
Test Example 5 Activity on a Mesangial Proliferative Glomerulonephritis Model
Anti-rat Thy-1.1 monoclonal antibody OX-7 (Cedarlane) was administered to male Wistar-Kyoto rats (Charles River Japan, 160 g, 6 animals/group) in an amount of 1.0 mg/kg by intravenous administration through the tail vein. A test compound was suspended in a 0.5% solution of methylcellulose and the resulting suspension was administered to each of the rats twice a day for a period of 7 days starting on the day before the administration of OX-7. On the 7th day after the OX-7 administration, when mesangial cell growth and extracellular matrix hypertrophy became prominent, the left kidney of each rat was extirpated, fixed with 20% buffered formalin for 6 hours and wrapped in paraffin, followed by slicing. The obtained pieces were subjected to immune tissue staining using antibody Pd10 (DAKO) against a proliferative cell nuclear antigen. After comparative staining with Methyl Green staining solution using diaminobenzidine as a color developer, the paraffin sections were enclosed. Half of the glomeruli in a kidney piece were observed and the number of the cells in one glomerulus which were positive to the proliferative cell nuclear antigen was calculated. The test for the significance of difference was carried out by the Wilcoxon test.

Where two headings read alike, the source gives them in different places.

T1 sequence (P09619 33-1106): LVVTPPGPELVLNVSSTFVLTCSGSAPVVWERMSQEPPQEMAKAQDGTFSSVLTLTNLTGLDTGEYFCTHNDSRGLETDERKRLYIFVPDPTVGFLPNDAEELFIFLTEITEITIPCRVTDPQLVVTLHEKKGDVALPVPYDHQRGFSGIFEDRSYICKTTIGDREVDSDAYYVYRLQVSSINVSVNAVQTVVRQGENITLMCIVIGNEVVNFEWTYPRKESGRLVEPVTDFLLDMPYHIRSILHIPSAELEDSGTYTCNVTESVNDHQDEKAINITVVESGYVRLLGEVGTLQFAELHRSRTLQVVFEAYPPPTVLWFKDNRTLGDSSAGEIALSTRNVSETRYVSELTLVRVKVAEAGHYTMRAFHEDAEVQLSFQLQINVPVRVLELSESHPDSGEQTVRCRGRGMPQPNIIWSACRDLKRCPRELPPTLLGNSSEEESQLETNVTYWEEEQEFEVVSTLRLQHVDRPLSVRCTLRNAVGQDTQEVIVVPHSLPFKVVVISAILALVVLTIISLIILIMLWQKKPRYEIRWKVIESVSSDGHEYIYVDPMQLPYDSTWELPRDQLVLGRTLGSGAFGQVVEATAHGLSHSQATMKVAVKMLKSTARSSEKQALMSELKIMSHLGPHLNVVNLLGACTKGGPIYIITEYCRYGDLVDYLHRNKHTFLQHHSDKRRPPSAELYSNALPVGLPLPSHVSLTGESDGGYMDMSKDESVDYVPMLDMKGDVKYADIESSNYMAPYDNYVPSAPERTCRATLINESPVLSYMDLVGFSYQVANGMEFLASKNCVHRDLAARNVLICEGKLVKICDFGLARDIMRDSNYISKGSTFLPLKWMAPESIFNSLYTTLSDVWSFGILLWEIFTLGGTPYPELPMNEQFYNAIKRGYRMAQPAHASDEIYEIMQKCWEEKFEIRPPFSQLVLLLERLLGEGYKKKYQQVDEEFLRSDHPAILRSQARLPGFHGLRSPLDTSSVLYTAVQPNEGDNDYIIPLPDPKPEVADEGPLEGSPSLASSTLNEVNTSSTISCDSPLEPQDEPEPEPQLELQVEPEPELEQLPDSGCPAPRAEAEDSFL

`COc1cc2ncnc(N3CCN(C(=O)Nc4ccc(C(C)C)cc4)CC3)c2cc1OC` [Compound 19, 4-(6,7-Dimethoxy-4-quinazolinyl)-N-(4-isopropylphenyl)-1-piperazinecarboxamide] returned a melting point of 252 to 254 °C. Also, the IC50 in series [1] turned out to be 180 nM.
Take `COc1cc2ncnc(N3CCN(C(=O)Nc4ccc(Oc5ccccc5)cc4)CC3)c2cc1OC` [Compound 60, 4-(6,7-Dimethoxy-4-quinazolinyl)-N-(4-phenoxyphenyl)-1-piperazinecarboxamide]: the IC50 in series [1] was found to be 30 nM.
With `COc1cc2ncnc(N3CCN(C(=S)Nc4ccccc4[N+](=O)[O-])CC3)c2cc1OC` [Compound 78, 4-(6,7-Dimethoxy-4-quinazolinyl)-N-(2-nitrophenyl)-1-piperazinethiocarboxamide], the melting point lay in the range of 177 to 178 °C. In series [2], this compound showed an IC50 of 580 nM. In addition, the IC50 in series [1] came out at 740 nM.
The matching figures for `COc1cc2ncnc(N3CCN(C(=S)Nc4cccc([N+](=O)[O-])c4)CC3)c2cc1OC` [Compound 79, 4-(6,7-Dimethoxy-4-quinazolinyl)-N-(3-nitrophenyl)-1-piperazinethiocarboxamide]: 140 to 143 °C, 120 nM and 140 nM.
Take `COc1cc2ncnc(N3CCN(C(=O)Nc4ccc(Br)cc4)CC3)c2cc1OC` [Compound 45, N-(4-bromophenyl)-4-(6,7-dimethoxy-4-quinazolinyl)-1-piperazinecarboxamide]: the melting point was 223 to 228 °C. This compound registered an IC50 in series [2] of 160 nM. In addition, in series [1], the IC50 was 80 nM.
In turn, `COc1cc2ncnc(N3CCN(C(=O)Nc4ccc([N+](=O)[O-])cc4)CC3)c2cc1OC` [Compound 77, 4-(6,7-dimethoxy-4-quinazolinyl)-N-(4-nitrophenyl)-1-piperazinecarboxamide] returned a melting point of 272 to 274 °C. Besides, the IC50 in series [1] was 100 nM.
For `COc1cc2ncnc(N3CCN(C(=O)Nc4ccc(C#N)cc4)CC3)c2cc1OC` [Compound 239, N-(4-Cyanophenyl)-4-(6,7-dimethoxy-4-quinazolinyl)-1-piperazinecarboxamide], the melting point is 274 to 275 °C. Also, the “Volume of left hind foot” value in series [3] (5 days a week, normal 1.12 ± 0.03, sensitized control 1.84 ± 0.18) was determined as 1.52 ± 0.16 mL. The Weight of spleen in series [3] (normal 21.4 ± 0.3, sensitized control 53.8 ± 3.8, P < 0.05 vs control) is 40.4 ± 2.5 mg/10 g of body weight. For the same compound, the Body weight in series [3] (normal 191 ± 5, sensitized control 146 ± 4, P < 0.05 vs control) turned out to be 159 ± 2 g. Further, the inhibition at 3000 µg/mL (stock) in series [3] (5 days a week, read-out: Inhibition rate (NO concentration)) is 42%. In addition, in series [3] (5 days a week, read-out: Inhibition rate (body weight)), the inhibition at 3000 µg/mL (stock) turned out to be 29%. Besides, the inhibition at 3000 µg/mL (stock) in series [3] (5 days a week, read-out: Inhibition rate (volume of left hind foot)) came out at 44%. In series [3] (5 days a week, read-out: Inhibition rate (weight of spleen)), the inhibition at 3000 µg/mL (stock) turned out to be 41%. For the same compound, the NO concentration in series [3] (serum, normal 11.1 ± 1.0, sensitized control 56.6 ± 7.0) came out at 37.6 ± 4.0 µM.
In turn, `COc1cc2ncnc(N3CCN(C(=S)NCc4ccc5c(c4)OCO5)CC3)c2cc1OC` [Compound 208, 4-(6,7-dimethoxy-4-quinazolinyl)-N-(3,4-methylenedioxybenzyl)-1-piperazinethiocarboxamide] yielded a melting point of 113 to 114 °C. Besides, the “Number of cells which are positive to intranuclear antigen of proliferative cells” value in series [4] is 6.1 +/− 0.9.
The compound `S=C(NCc1cccnc1)N1CCN(c2ncnc3cc4ccccc4cc23)CC1` [Compound 366, 4-(4-Benzo[g]quinazolinyl)-N-(3-picolyl)-1-piperazinethiocarboxamide] registered a melting point of 107 to 110 °C. In addition, 1470 nM corresponded to half-maximal inhibition in series [2] (IC50).

For orientation: IC50 means the concentration that gives 50% inhibition. The melting point is the temperature of the solid-liquid transition.
